# According to patent US20250154146A1, “PROTEIN DEGRADERS DEVELOPED ON BASIS OF BCL-2 FAMILY PROTEIN LIGAND COMPOUNDS AND USE THEREOF” (ShanghaiTech University, priority 2022, published 2025):
# “Also recorded” adds a separate entry of the source.
# Legend:
# Assay type in all cases: cell-based
# [1] = test system: RS4;11 cells; assay: Thiazolyl blue cell proliferation assay in RS4;11 cells; conditions: Homo sapiens, RS4;11 acute lymphoblastic leukemia cells, 48 hours, read-out: IC50 (nM) for inhibiting the proliferation of RS4;11 cells
# Procedure, shortened: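 RS4;11 cells, 3×10^4 cells/well in serum-containing RPMI-1640, treated 48 h with 7 concentrations (top 1000 nM or 100 nM, 10-fold serial dilutions). MTT added for 3 h at 37 °C, solubilised 4-6 h with SDS/isopropanol/HCl, absorbance read at 490 nm. IC50 from growth-inhibition curves; triplicates, at least three repeats.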
# [2] = test system: MV4;11 cells; assay: Thiazolyl blue cell proliferation assay in MV4;11 cells; conditions: Homo sapiens, MV4;11 myeloid monocytic leukemia cells, 48 hours, read-out: IC50 (nM) for inhibiting the proliferation of MV4;11 cells
# Procedure, shortened: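 MV4;11 cells were seeded at 2×10^4 cells/well in serum-containing IMDM and treated with compound dilution series for 48 h. Viability was read by MTT at 490 nm after SDS/isopropanol/HCl solubilisation. IC50 values came from growth-inhibition curves, with 3 replicates and at least three repeats.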
# [3] = test system: Molt-4 cells; assay: Thiazolyl blue cell proliferation assay in Molt-4 cells; conditions: Homo sapiens, Molt-4 acute lymphocytic leukemia cells, 72 hours, read-out: IC50 (nM) for inhibiting the proliferation of Molt-4 cells
# Procedure, shortened: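 BCL-XL-dependent Molt-4 cells at 2×10^4/well in serum-containing RPMI 1640 were exposed to compound concentration gradients for 72 h. Thiazolyl blue (MTT) was added for 3 h at 37° C, solubilised in SDS/isopropanol/HCl, and read at 490 nm. IC50 comes from growth-inhibition curves, triplicate, repeated ≥3 times.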
# [4] = test system: Hedgehog (Hh) signaling pathway; assay: Dual-luciferase reporter assay of Hedgehog activity in Light II cells; conditions: SAG stimulation, 36 h, dual-luciferase assay reporter kit, read-out: IC50 (nM) in Light II cells (inhibiting Hedgehog activity)
# Method: Determination of the IC50 Values of Compounds Inhibiting Hedgehog Activity—Dual-Luciferase Reporter Assay:
# Light II cells were NIH3T3 cell lines that stably express the Gli-luciferase and TK-renilla reporters. They were cultured with DMEM medium containing 10% (v/v) fetal bovine serum (FBS), 0.4 mg/ml G418, 0.15 mg/ml bleomycin (Zeocin), and penicillin/streptomycin at 37° C. in an incubator with 5% CO2. Light II cells in the logarithmic growth phase were seeded at a density of 2.5×10^4 cells/well in a 96-well plate. After 24h incubation, the cells were subjected to treatment with SAG with or without different concentrations of the compounds of the present disclosure for 36 h. After that, the Hedgehog activity was measured using the dual fluorescence reporter kit according to its instructions. The experiment had 3 replicates per group and was repeated at least three times.
# [5] = target: T1, BCL-XL protein (Homo sapiens, UniProt Q07817); assay: Western blot of BCL-XL protein in Molt-4 cells; conditions: 100 nM, 8 h
# T1 construct: endogenous in cells; host or cells: Molt-4 (human acute lymphocytic leukemia cells)
# Method: The BCL-XL antibody used in the experiment was purchased from Abcam Company, and the Tubulin antibody was purchased from Proteintech Company.
# Molt-4 cells in logarithmic growth phase seeded at a density of 3×10^6 cells/well in a 6-well plate were subjected to treatment with the compounds of the present disclosure, and DMSO was used as the vehicle control group. After […] of treatment, the cells were harvested and washed once in PBS. Cells were placed on ice and treated with IP protein lysis buffer containing PMSF protease inhibitors. After centrifugation at 4° C. (10 k rpm, 5 min), the supernatant was collected and mixed with 4×LDS protein loading buffer at a volume ratio of 3:1. The mixture of protein supernatant with loading buffer were further added with 5% β-mercaptoethanol. After incubation in a metal bath at 95° C. for 10 minutes, the protein samples was stored at −80° C. or cooled directly on ice for protein electrophoresis using 10% homemade polyacrylamide gel as separation gel. Electrophoresis tank and other related components were purchased from Bio-rad company. The electrophoresis conditions were voltage 80 V for 45 minutes, then switch to voltage 120V for further electrophoresis for 1 hour. Then protein in gel was transferred onto PVDF membrane at an isocurrent of 300 mA in an icy water bath for one hour. Afterwards, the membrane was blocked with 5% skim milk for 1 hour at room temperature. Subsequently the membrane was incubated with primary antibody at 4° C. overnight or at room temperature for 2 h, then washed with 1×TBST buffer (sodium chloride, 150 mM, Tris, 10 mM, Tween 20, 0.1%; PH 7.4) for three times, and then added with secondary antibody and incubated at room temperature for 45 min, washed with 1×TBST buffer (sodium chloride, 150 mM, Tris, 10 mM, Tween 20, 0.1%; PH 7.4) three times, and subjected to color development. The antibody dilution ratio was determined according to the antibody instructions.
# Molt-4 cells were seeded into a 6-well plate at a density of 3×10^6 cells per well. The next day, the cells were treated with the compounds of the present disclosure at a concentration of 100 nM, and the control groups were treated with DMSO and DT2216, respectively. Protein were extracted after 8 hours treatment, and BCL-XL protein expression was assessed by the western blot.
# T1 sequence (Q07817 whole entry): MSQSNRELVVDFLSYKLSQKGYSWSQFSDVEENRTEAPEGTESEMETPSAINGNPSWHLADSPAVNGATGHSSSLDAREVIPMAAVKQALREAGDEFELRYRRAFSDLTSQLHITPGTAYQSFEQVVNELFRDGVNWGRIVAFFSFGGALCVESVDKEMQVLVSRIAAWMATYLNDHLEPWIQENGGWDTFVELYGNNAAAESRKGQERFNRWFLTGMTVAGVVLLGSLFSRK
IC50 [1] [nM],IC50 [2] [nM],IC50 [3] [nM],IC50 [4] [nM],SMILES,BCL-XL protein expression / degradation (western blot) [5]
< 20,< 20,< 10,< 10,"CC1(C)CCC(CN2CCN(c3ccc(C(=O)NS(=O)(=O)c4ccc(NC[C@H]5CC[C@H](N6CCN(Cc7cc(Br)c8c(c7)C(=O)N(C7CCC(=O)NC7=O)C8)CC6)CC5)c([N+](=O)[O-])c4)c(Oc4cnc5[nH]ccc5c4)c3)CC2)=C(c2ccc(Cl)cc2)C1 (relative stereo) [BCL-03146, 2-((1H-pyrrolo[2,3-b]pyridin-5-yl)oxy)-N-((4-((((trans)-4-(4-((7-bromo-2-(2,6-dioxopiperidin-3-yl)-3-oxoisoindolin-5-yl)methyl)piperazin-1-yl)cyclohexyl)methyl)amino)-3-nitrophenyl)sulfonyl)-4-(4-((4′-chloro-5,5-dimethyl-3,4,5,6-tetrahydro-[1,1′-biphenyl]-2-yl)methyl)piperazin-1-yl)benzamide]",significantly reduce the expression of BCL-XL protein; also recorded: significantly degraded BCL-XL protein
< 20,< 20,< 10,< 10,"CC1(C)CCC(CN2CCN(c3ccc(C(=O)NS(=O)(=O)c4ccc(NC[C@H]5CC[C@H](N6CCN(Cc7ccc8c(c7)CN(C7CCC(=O)NC7=O)C8=O)CC6)CC5)c([N+](=O)[O-])c4)c(Oc4cnc5[nH]ccc5c4)c3)CC2)=C(c2ccc(Cl)cc2)C1 (relative stereo) [BCL-03147, 2-((1H-pyrrolo[2,3-b]pyridin-5-yl)oxy)-4-(4-((4′-chloro-5,5-dimethyl-3,4,5,6-tetrahydro-[1,1′-biphenyl]-2-yl)methyl)piperazin-1-yl)-N-((4-((((trans)-4-(4-((2-(2,6-dioxopiperidin-3-yl)-1-oxoisoindolin-5-yl)methyl)piperazin-1-yl)cyclohexyl)methyl)amino)-3-nitrophenyl)sulfonyl)benzamide]",significantly reduce the expression of BCL-XL protein; also recorded: significantly degraded BCL-XL protein
< 20,< 20,< 10,< 10,"CC1(C)CCC(CN2CCN(c3ccc(C(=O)NS(=O)(=O)c4ccc(NC[C@H]5CC[C@@H](N6CCN(Cc7ccc8c(c7)CN(C7CCC(=O)NC7=O)C8=O)CC6)CC5)c([N+](=O)[O-])c4)c(Oc4cnc5[nH]ccc5c4)c3)CC2)=C(c2ccc(Cl)cc2)C1 (relative stereo) [BCL-03148, 2-((1H-pyrrolo[2,3-b]pyridin-5-yl)oxy)-4-(4-((4′-chloro-5,5-dimethyl-3,4,5,6-tetrahydro-[1,1′-biphenyl]-2-yl)methyl)piperazin-1-yl)-N-((4-((((cis)-4-(4-((2-(2,6-dioxopiperidin-3-yl)-1-oxoisoindolin-5-yl)methyl)piperazin-1-yl)cyclohexyl)methyl)amino)-3-nitrophenyl)sulfonyl)benzamide]",significantly reduce the expression of BCL-XL protein; also recorded: significantly degraded BCL-XL protein
< 20,< 20,< 10,< 10,"CC1(C)CCC(CN2CCN(c3ccc(C(=O)NS(=O)(=O)c4ccc(NC[C@H]5CC[C@@H](N6CCN(Cc7cc(Br)c8c(c7)C(=O)N(C7CCC(=O)NC7=O)C8)CC6)CC5)c([N+](=O)[O-])c4)c(Oc4cnc5[nH]ccc5c4)c3)CC2)=C(c2ccc(Cl)cc2)C1 (relative stereo) [BCL-03149, 2-((1H-pyrrolo[2,3-b]pyridin-5-yl)oxy)-N-((4-((((cis)-4-(4-((7-bromo-2-(2,6-dioxopiperidin-3-yl)-3-oxoisoindolin-5-yl)methyl)piperazin-1-yl)cyclohexyl)methyl)amino)-3-nitrophenyl)sulfonyl)-4-(4-((4′-chloro-5,5-dimethyl-3,4,5,6-tetrahydro-[1,1′-biphenyl]-2-yl)methyl)piperazin-1-yl)benzamide]",significantly reduce the expression of BCL-XL protein; also recorded: significantly degraded BCL-XL protein
